Laboratory results from ChEMBL document CHEMBL5113368, “Meroterpenoids produced by fungi: Occurrence, structural diversity, biological activities, and their molecular targets” (Eur J Med Chem, 2021).
Values belong to the molecule of their own block, whether it stands above or below them.

Assays:
Acetylcholinesterase = Acetylcholinesterase (Homo sapiens, UniProt P22303); assay: Inhibition of AChE (unknown origin)
[1] = molecular target: T1, Pancreatic triacylglycerol lipase (Sus scrofa, UniProt P00591); assay: Inhibition of porcine pancreatic lipase using p-Nitrophenyl butyrate substrate incubated for 15 mins by spectrophotometer analysis
T1 sequence (P00591 whole entry): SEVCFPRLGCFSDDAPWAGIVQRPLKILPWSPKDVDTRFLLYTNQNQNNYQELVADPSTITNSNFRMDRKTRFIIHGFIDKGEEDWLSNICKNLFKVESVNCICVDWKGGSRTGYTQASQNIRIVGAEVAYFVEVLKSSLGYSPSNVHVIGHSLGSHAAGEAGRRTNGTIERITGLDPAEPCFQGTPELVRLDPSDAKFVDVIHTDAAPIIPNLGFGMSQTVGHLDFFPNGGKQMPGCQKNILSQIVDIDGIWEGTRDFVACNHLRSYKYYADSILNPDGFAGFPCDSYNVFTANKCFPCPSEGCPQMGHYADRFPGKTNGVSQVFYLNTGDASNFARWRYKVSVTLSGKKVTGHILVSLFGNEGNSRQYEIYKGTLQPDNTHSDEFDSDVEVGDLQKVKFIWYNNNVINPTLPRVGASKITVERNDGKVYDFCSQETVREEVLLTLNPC

HL-60 = assay: Cytotoxicity against human HL-60 cells assessed as cell growth inhibition measured after 24 hrs by MTT assay; type: functional, cell-based; conditions: HL-60, 24 h
THP-1 = assay: Cytotoxicity against human THP-1 cells assessed as cell growth inhibition measured after 24 hrs by MTT assay; type: functional, cell-based; conditions: THP-1, 24 h
NCI-H187 = assay: Cytotoxicity against human NCI-H187 cells assessed as cell growth inhibition; type: functional, cell-based
KB = assay: Cytotoxicity against human KB cells assessed as cell growth inhibition; type: functional, cell-based
[2] = Inhibition of Saccharomyces cerevisiae alpha-glucosidase using p-nitrophenyl-alpha-D -glucopyranoside as substrate pre-incubated for 10 mins followed by substrate addition measured after 15 mins by absorbance based analysis
[3] = molecular target: T2, Prostaglandin G/H synthase 2 (Homo sapiens, UniProt P35354); assay: Inhibition of COX-2 (unknown origin) by fluorescent inhibitor screening assay
T2 sequence (P35354 whole entry): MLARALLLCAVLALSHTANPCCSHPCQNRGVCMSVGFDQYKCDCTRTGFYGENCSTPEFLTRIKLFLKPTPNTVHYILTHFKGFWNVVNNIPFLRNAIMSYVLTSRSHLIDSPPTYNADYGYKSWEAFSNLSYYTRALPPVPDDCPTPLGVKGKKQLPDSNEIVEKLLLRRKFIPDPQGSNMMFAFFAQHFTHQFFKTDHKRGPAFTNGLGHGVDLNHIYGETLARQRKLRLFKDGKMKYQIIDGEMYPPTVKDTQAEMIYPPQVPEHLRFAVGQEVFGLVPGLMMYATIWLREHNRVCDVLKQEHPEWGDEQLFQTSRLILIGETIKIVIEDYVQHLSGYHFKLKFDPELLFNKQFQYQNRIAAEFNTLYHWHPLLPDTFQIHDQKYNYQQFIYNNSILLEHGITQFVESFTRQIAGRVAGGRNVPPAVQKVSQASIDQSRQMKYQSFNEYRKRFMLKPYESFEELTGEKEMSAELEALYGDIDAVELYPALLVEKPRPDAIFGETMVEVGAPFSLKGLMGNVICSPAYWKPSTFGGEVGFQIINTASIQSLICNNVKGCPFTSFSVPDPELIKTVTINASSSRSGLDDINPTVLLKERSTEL

RAW264.7 = assay: Anti-inflammatory activity in mouse RAW264.7 cells assessed as inhibition of NO production; type: functional, cell-based
[4] = molecular target: T2, Prostaglandin G/H synthase 2; assay: Inhibition of COX-2 (unknown origin)
[5] = molecular target: T3, Tyrosine-protein phosphatase non-receptor type 1 (Homo sapiens, UniProt P18031); assay: Inhibition of PTP1B (unknown origin) using pNPP as substrate by spectrophotometer analysis
T3 sequence (P18031 whole entry): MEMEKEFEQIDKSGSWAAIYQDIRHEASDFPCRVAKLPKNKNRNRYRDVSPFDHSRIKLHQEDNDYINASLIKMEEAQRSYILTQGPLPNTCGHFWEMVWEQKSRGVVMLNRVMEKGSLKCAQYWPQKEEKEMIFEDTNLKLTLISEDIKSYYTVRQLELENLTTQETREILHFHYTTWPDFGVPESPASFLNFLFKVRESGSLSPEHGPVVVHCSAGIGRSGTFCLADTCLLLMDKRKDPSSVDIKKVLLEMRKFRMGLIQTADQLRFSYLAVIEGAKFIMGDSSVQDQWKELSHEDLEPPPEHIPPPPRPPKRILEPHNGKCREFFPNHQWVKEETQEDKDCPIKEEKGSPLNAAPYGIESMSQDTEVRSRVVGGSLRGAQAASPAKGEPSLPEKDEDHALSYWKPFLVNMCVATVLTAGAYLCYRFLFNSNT

Sequence of Acetylcholinesterase (P22303 whole entry): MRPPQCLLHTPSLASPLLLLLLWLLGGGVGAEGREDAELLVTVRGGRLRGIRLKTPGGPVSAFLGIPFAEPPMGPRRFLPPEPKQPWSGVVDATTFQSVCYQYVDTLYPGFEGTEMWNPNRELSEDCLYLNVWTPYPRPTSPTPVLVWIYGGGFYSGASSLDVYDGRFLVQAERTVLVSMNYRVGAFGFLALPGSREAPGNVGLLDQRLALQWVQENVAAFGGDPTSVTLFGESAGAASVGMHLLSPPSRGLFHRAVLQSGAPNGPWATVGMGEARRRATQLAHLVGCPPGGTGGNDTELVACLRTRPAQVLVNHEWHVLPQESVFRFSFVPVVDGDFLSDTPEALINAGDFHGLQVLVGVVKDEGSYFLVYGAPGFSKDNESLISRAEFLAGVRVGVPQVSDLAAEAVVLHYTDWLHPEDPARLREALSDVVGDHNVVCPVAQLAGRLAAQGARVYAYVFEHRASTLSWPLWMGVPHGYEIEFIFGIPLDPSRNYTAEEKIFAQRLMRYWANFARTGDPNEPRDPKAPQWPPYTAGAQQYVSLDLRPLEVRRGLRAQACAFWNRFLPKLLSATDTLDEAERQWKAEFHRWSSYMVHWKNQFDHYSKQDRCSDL

SMILES: COc1ccc(-c2cc3c(c(=O)o2)C[C@]2(O)[C@@]4(C)CC[C@@H](O)C(C)(C)[C@]4(O)CC[C@@]2(C)O3)cc1
IC50 (Acetylcholinesterase): 0.64 µM

SMILES: COC(=O)CC1=C(C)[C@@H]2C[C@@]3(C)C(=O)O[C@H]4O[C@@H](C)C(=O)[C@](C(=O)OC)([C@H]43)[C@@]2(C)CC=C1C(C)(C)OC
IC50 (HL-60): 7.9 µM
IC50 (THP-1): 11.3 µM

SMILES: CC(=O)O[C@H]1C[C@@H](O)[C@@]2(C)[C@@H](CC[C@]3(C)[C@@H]2[C@@H](O)C[C@]2(C)Oc4oc(C)cc(=O)c4C[C@@H]32)C1(C)C
IC50 (NCI-H187): 32.7 µM
IC50 (KB): 32.7 µM

SMILES: COC(=O)[C@H](Cc1ccccc1)N1Cc2c(cc(O)c(C/C=C(\C)CC/C=C(\C)C(=O)O)c2O)C1=O
IC50 [2]: 40.8 µM

SMILES: COC(=O)[C@H](CCCCN1Cc2c(cc(O)c(C/C=C(\C)CC/C=C(\C)C(=O)O)c2O)C1=O)N1Cc2c(cc(O)c(C/C=C(\C)CC/C=C(\C)C(=O)O)c2O)C1=O
IC50 [2]: 36.2 µM

SMILES: C/C(=C\CC/C(C)=C/C/C=C(/CC(=O)c1cc(O)ccc1O)C(=O)O)CO
IC50 [3]: 4.84 µM

SMILES: C[C@@H]1Cc2c3c(c(Cl)c(O)c2C(=O)O1)O[C@@]1(C)[C@@H](O)C[C@H]2C(C)(C)C(=O)C(Cl)(Cl)C[C@]2(C)[C@@H]1C3
IC50 [5]: 71.6 µM

SMILES: C/C(=C\CC/C(C)=C/CCCC1(O)Oc2ccc(O)cc2C1=O)CO (stereo not drawn)
IC50 [3]: 1.38 µM

SMILES: CC(=O)O[C@@H]1C[C@@]2(C)Oc3cc(C)oc(=O)c3C[C@@H]2[C@@]2(C)C=CC(=O)C(C)(C)[C@H]12
IC50 (Acetylcholinesterase): 13.6 µM

Second part, the molecule after the results:

IC50 [1]: 2.5 µM
SMILES: CC(C)=CCC/C(C)=C/CCC1=C[C@]2(OC1=O)c1cc(O)ccc1OC(=O)[C@@]2(CC/C=C(\C)CCC=C(C)C)CC(=O)c1cc(O)ccc1O

IC50 (RAW264.7): 5.9 µM
SMILES: CC1(C)CCC[C@]23C[C@](CC(=O)c4cc(O)ccc4O)(CC[C@@H]12)C(=O)O3

IC50 [3]: 3.47 µM
SMILES: C/C(=C/CC/C(C)=C/CC/C(=C/C(=O)c1cc(O)ccc1O)C(=O)O)CO

IC50 [4]: 25.5 µM
SMILES: O=C1C[C@]23CC[C@H](O)[C@]2(COC3=O)c2c(O)ccc(O)c21

IC50 [5]: 63.1 µM
SMILES: CO[C@@H]1c2c3c(cc(O)c2C(=O)O[C@@H]1C)O[C@@]1(C)[C@@H](O)C[C@H]2C(C)(C)C(=O)C=C[C@]2(C)[C@@H]1C3

IC50 (RAW264.7): 6.1 µM
SMILES: CC1(C)CCC[C@@]23C[C@@](CC(=O)c4cc(O)ccc4O)(CC[C@H]12)C(=O)O3

IC50 [3]: 1.05 µM
SMILES: C/C(=C/CC/C(C)=C/CC[C@]1(C(=O)O)CC(=O)c2cc(O)ccc2O1)C(=O)O
